Key:
PAO1 producing IMP-10 = experiment: MIC and checkerboard by broth microdilution, recombinant strain; type: cell-based, Pseudomonas aeruginosa; conditions: antibiotic alone
Experimental: (§1) The fractional inhibitory concentration index (FICI) was calculated and interpreted as follows: the MIC of drug A in combination/the MIC of drug A alone + the MIC of drug B in combination/the MIC drug B alone. FICI ≤ 0.5 = synergy; 0.5 < FICI ≤ 1 = additive; FICI 1 < FICI < 2 = indifference, and FICI ≥ 2 = antagonism. All susceptibility testing/checkerboard assays were performed in triplicate.

PAO1 producing NDM-1 = experiment: as above; type: cell-based, Pseudomonas aeruginosa; conditions: antibiotic alone
Experimental: as §1

[1] = system: PAO1 TnoprD producing NDM-1; experiment: as above; type: cell-based, Pseudomonas aeruginosa; conditions: NDM-1 TnoprD; antibiotic alone
Experimental: as §1

[2] = system: PAO1 TnoprD producing IMP-1; experiment: as above; type: cell-based, Pseudomonas aeruginosa; conditions: IMP-1 TnoprD; antibiotic alone
Experimental: as §1

[3] = system: PAO1 TnoprD producing VIM-1; experiment: as above; type: cell-based, Pseudomonas aeruginosa; conditions: VIM-1 TnoprD; antibiotic alone
Experimental: as §1

PAO1 producing SPM-1 = experiment: as above; type: cell-based, Pseudomonas aeruginosa; conditions: antibiotic alone
Description: (§2) Pseudomonas aeruginosa isolate, PAO1, was used alongside its isogenic counterpart, PAO1 TnoprD, which lacks a functional OprD porin (Held et al. [2012]). β-lactamases, blaIMP-1, blaIMP-10, blaIMP-13, blaNDM-1, blaSPM-1, blaVIM-1, blaVIM-2, and blaKPC-2, had previously been cloned into the pUCP24 shuttle vector (Bouvier et al. [2025]), and were transformed by electroporation into both PAO1 and PAO1 TnoprD.
as §1, with “. MICs of DMSA, CAZ, FEP and checkerboards for the combinations, CAZ/DMSA and FEP/DMSA, were performed for all clinical isolates. All susceptibility testing results were interpreted according to CLSI guidelines (CLSI [2023]). The” for “The”

PAO1 producing VIM-2 = experiment: as above; type: cell-based, Pseudomonas aeruginosa; conditions: antibiotic alone
Description: as §2
as §1, with “. MICs of DMSA, CAZ, FEP and checkerboards for the combinations, CAZ/DMSA and FEP/DMSA, were performed for all clinical isolates. All susceptibility testing results were interpreted according to CLSI guidelines (CLSI [2023]). The” for “The”

PAO1 producing VIM-1 = experiment: as above; type: cell-based, Pseudomonas aeruginosa; conditions: antibiotic alone
Description: as §2
as §1, with “. MICs of DMSA, CAZ, FEP and checkerboards for the combinations, CAZ/DMSA and FEP/DMSA, were performed for all clinical isolates. All susceptibility testing results were interpreted according to CLSI guidelines (CLSI [2023]). The” for “The”

[4] = system: PAO1 TnoprD producing IMP-10; experiment: as above; type: cell-based, Pseudomonas aeruginosa; conditions: IMP-10 TnoprD; antibiotic alone
Description: as §2
as §1, with “. MICs of DMSA, CAZ, FEP and checkerboards for the combinations, CAZ/DMSA and FEP/DMSA, were performed for all clinical isolates. All susceptibility testing results were interpreted according to CLSI guidelines (CLSI [2023]). The” for “The”

[5] = system: PAO1 TnoprD producing SPM-1; experiment: as above; type: cell-based, Pseudomonas aeruginosa; conditions: SPM-1 TnoprD; antibiotic alone
Description: as §2
as §1, with “. MICs of DMSA, CAZ, FEP and checkerboards for the combinations, CAZ/DMSA and FEP/DMSA, were performed for all clinical isolates. All susceptibility testing results were interpreted according to CLSI guidelines (CLSI [2023]). The” for “The”

[6] = system: PAO1 TnoprD producing VIM-2; experiment: as above; type: cell-based, Pseudomonas aeruginosa; conditions: VIM-2 TnoprD; antibiotic alone
Description: as §2
as §1, with “. MICs of DMSA, CAZ, FEP and checkerboards for the combinations, CAZ/DMSA and FEP/DMSA, were performed for all clinical isolates. All susceptibility testing results were interpreted according to CLSI guidelines (CLSI [2023]). The” for “The”

PAO1 producing IMP-1 = experiment: as above; type: cell-based, Pseudomonas aeruginosa; conditions: antibiotic alone
Description: as §2
as §1, with “. MICs of DMSA, CAZ, FEP and checkerboards for the combinations, CAZ/DMSA and FEP/DMSA, were performed for all clinical isolates. All susceptibility testing results were interpreted according to CLSI guidelines (CLSI [2023]). The” for “The”

PAO1 producing IMP-13 = experiment: as above; type: cell-based, Pseudomonas aeruginosa; conditions: antibiotic alone
Description: as §2
as §1, with “. MICs of DMSA, CAZ, FEP and checkerboards for the combinations, CAZ/DMSA and FEP/DMSA, were performed for all clinical isolates. All susceptibility testing results were interpreted according to CLSI guidelines (CLSI [2023]). The” for “The”

[7] = system: PAO1 TnoprD producing IMP-13; experiment: as above; type: cell-based, Pseudomonas aeruginosa; conditions: IMP-13 TnoprD; antibiotic alone
Description: as §2
as §1, with “. MICs of DMSA, CAZ, FEP and checkerboards for the combinations, CAZ/DMSA and FEP/DMSA, were performed for all clinical isolates. All susceptibility testing results were interpreted according to CLSI guidelines (CLSI [2023]). The” for “The”

VIM-1 = VIM-1 (Pseudomonas aeruginosa, UniProt A0A0F7KYQ8); experiment: IC50, inhibition of cephalothin hydrolysis by crude extract; conditions: VIM-1; 100 μM cephalothin, pH 7.0
[8] = system: MBL-producers in isogenic strains of P. aeruginosa; parameters: method as in Bouvier et al. 2025; conditions: ref Bouvier et al. 2025, cited from earlier work
MBL-producing E. coli = conditions: high concentrations, ref Cheminet et al. 2020, cited from earlier work
SPM-1 = SPM-1 (Pseudomonas aeruginosa, UniProt Q8G9Q0); experiment: IC50, inhibition of cephalothin hydrolysis by crude extract; conditions: SPM-1; 100 μM cephalothin, pH 7.0
Sequence of SPM-1 (Q8G9Q0 entry or part of it): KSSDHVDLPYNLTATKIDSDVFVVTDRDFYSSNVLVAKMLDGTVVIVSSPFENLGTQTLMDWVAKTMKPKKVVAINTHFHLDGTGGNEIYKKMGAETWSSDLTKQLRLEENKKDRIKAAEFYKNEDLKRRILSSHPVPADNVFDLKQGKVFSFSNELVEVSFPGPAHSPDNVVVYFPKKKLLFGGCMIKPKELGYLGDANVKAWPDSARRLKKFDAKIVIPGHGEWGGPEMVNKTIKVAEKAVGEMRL

IMP-13 = IMP-13 (Pseudomonas aeruginosa, UniProt Q7WYA8); experiment: as above; conditions: IMP-13; 100 μM cephalothin, pH 7.0
Sequence of IMP-13 (Q7WYA8 21-246): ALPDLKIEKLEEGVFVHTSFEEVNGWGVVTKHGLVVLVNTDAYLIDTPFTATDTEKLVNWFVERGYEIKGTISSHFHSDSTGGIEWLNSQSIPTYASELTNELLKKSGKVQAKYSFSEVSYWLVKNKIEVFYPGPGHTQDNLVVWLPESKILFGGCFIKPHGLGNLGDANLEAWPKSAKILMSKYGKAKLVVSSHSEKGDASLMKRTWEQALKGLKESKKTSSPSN

IMP-10 = IMP-10 (Serratia marcescens, UniProt P52699, V49F); experiment: as above; conditions: IMP-10; 100 μM cephalothin, pH 7.0
Sequence of IMP-10 (P52699 19-246 V49F): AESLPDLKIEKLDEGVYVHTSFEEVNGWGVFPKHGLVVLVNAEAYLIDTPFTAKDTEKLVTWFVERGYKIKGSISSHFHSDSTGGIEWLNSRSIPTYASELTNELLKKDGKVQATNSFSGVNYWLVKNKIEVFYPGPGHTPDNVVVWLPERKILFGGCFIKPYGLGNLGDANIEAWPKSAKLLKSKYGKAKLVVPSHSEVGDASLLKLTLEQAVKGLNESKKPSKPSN

[9] = parameters: method as in van Eijkeren et al. 2016; conditions: 30 mg/kg dose; ref van Eijkeren et al. 2016; cited from earlier work
VIM-2 = VIM-2 (Escherichia coli, UniProt Q5U7L7); experiment: IC50, inhibition of cephalothin hydrolysis by crude extract; conditions: VIM-2; 100 μM cephalothin, pH 7.0
NDM-1 = NDM-1 (Klebsiella pneumoniae, UniProt C7C422); experiment: as above; conditions: 100 μM cephalothin, pH 7.0
Sequence of NDM-1 (C7C422 29-270 limits assumed): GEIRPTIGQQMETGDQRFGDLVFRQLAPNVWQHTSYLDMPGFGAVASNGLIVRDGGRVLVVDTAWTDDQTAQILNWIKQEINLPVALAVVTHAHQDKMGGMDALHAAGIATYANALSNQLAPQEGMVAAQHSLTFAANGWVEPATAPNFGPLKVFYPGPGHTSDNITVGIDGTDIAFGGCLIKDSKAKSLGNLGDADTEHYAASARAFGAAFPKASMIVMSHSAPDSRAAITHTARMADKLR

Question: With CC(C)(O/N=C(\C(=O)N[C@@H]1C(=O)N2C(C(=O)[O-])=C(C[n+]3ccccc3)CS[C@H]12)c1csc(N)n1)C(=O)O [CAZ, ceftazidime] as the compound, how does the MIC (PAO1 producing IMP-10) read?
Answer: 2050 mg/L

Question: And the MIC (PAO1 producing NDM-1)?
Answer: 4100 mg/L

Question: What about the MIC [1] of the same compound?
Answer: 4100 mg/L

Question: And the MIC [2]?
Answer: 1020 mg/L

Question: What about the MIC [3] of the same compound?
Answer: 2050 mg/L

Question: And the MIC (PAO1 producing SPM-1)?
Answer: 512 mg/L

Question: And the MIC (PAO1 producing VIM-2)?
Answer: 8 mg/L

Question: What about the MIC (PAO1 producing VIM-1) of the same compound?
Answer: 2050 mg/L

Question: What about the MIC [4] of the same compound?
Answer: 2050 mg/L

Question: And the MIC [5]?
Answer: 512 mg/L

Question: What about the MIC [6] of the same compound?
Answer: 8 mg/L

Question: What about the MIC (PAO1 producing IMP-1) of the same compound?
Answer: 1020 mg/L

Question: What about the MIC (PAO1 producing IMP-13) of the same compound?
Answer: 64 mg/L

Question: And the MIC [7]?
Answer: 64 mg/L

Question: Which results are given for O=C(O)[C@@H](S)[C@@H](S)C(=O)O [DMSA, meso-dimercaptosuccinic acid]?
Answer: IC50 (VIM-1): > 1000 µM; effect on carbapenem (IPM and MEM) MICs ([8]; DMSA at 3 mM): significantly reduce; type of interaction with carbapenems [8]: additive; efficacy in mouse peritonitis model (MBL-producing E. coli; MBL-producing E. coli): effective; tolerability in mouse peritonitis model (MBL-producing E. coli): well-tolerated; IC50 (SPM-1): > 1000 µM; IC50 (IMP-13): 350 µM; IC50 (IMP-10): 50 µM; tolerability [9]: well tolerated; IC50 (VIM-2): > 1000 µM; IC50 (NDM-1): > 1000 µM
